{
  "source": "patent US7449194B2",
  "about": "“Antimicrobial body covering articles” (priority 2002, dated 2008)",
  "origin": "cited, not measured here",
  "conditions": "in water; 21° C.",
  "data": [
    {"smiles": "[O][Cl+][O-]", "note": "[chlorine dioxide]", "values": [
      {"measurement": "partition coefficient", "result": 40}
    ]}
  ]
}
